Experimental data from patent publication US20130210755A1, “METHODS FOR INHIBITING INSECT INFESTATIONS” (ELI LILLY AND COMPANY, priority 2010, published 2013).

What was measured:
Assay type in all cases: in vivo
[1] = test system: stable fly (Stomoxys calcitrans); assay: Fecal bioassay: emergence of adult stable flies from manure of horses given oral spinosad feed-through
Protocol: (§1) A study was conducted to evaluate the efficiency of oral spinosad feed-through for controlling development of immature stages of the house fly (Musca domestica) and stable fly (Stomoxys calcitrans) in the manure of treated horses. There were five treatment groups, having three horses each. Treatment groups 1-4 were administered the following pellet formulation: […]
(§2) Treatment groups 1-4 were provided the test substance top-dressed onto feed supplement and fed at a rate to deliver a dose, respectively, of approximately 0.6, 0.8, 1.0, and 1.2 mg spinosad/kg body weight/day, daily for the duration of the study. Treatment group 5 was the negative control group and was fed the above formulation without spinosad, and each horse in this treatment group received one ounce (28.3 g) of the negative control substance.
(§3) Fecal samples from the three horses in each treatment group were collected on study days—1, 3, 10, and 17, and bioassayed with eggs of house flies and stable flies, and the number of adult flies that emerged from the fecal sample bioassays were determined. The concentration of spinosyn A in the fecal samples was also determined.
(§4) Another study was carried out, similar to the above study, with a few changes. There were three spinosad administered groups, with the rates of spinosad being 0.4, 0.5, and 0.6 mg spinosad/kg of body weight. There was a positive control group, administered between 0.6 and 0.7 mg cyromazine/kg of body weight. There was also a negative control group.

[2] = test system: house fly (Musca domestica); assay: Fecal bioassay: emergence of adult house flies from manure of horses given oral spinosad feed-through
Protocol: as §1, §2, §3
Another study was carried out, similar to the above study, with a few changes. There were three spinosad administered groups, with the rates of spinosad being 0.4, 0.5, and 0.6 mg spinosad/kg of body weight. […]

[3] = Observed adverse effects in horses under feed-through administration
Protocol: as §1, §2, §4

[4] = Concentration of spinosyn A in fecal samples of treated horses
Protocol: as §2, §3, §4

[5] = test system: horn flies (Haematobia irritans); assay: Orally administered spinosad to control horn flies on cattle; conditions: flies remaining after 24 hours exposure
Protocol: A study was conducted to evaluate the efficacy of orally administered spinosad to control horn flies (Haematobia irritans), an obligate ectoparasite of cattle. A liquid spinosad formulation was topically applied to a palatable feed ration and fed to cattle at doses of 0.03, 0.10, 0.30 and 3.0 mg/kg of body weight. The number of horn flies remaining after 24 hours exposure to the cattle in an enclosed room was determined on test days 2, 4, 9, 11, 16, 18, 23 and 25 and was compared to the number remaining for the control group. The percent reduction in horn flies was notable for the 0.30 and 3.0 mg/kg test groups.

Nc1nc(N)nc(NC2CC2)n1 [cyromazine]
Reduction of the emergence of stable flies ([1]; second study, horses, 0.6-0.7 mg cyromazine/kg): 100%

spinosad
effective in preventing emergence of adult house flies ([2]; first study, all 4 groups (0.6, 0.8, 1.0, 1.2 mg spinosad/kg body weight/day), all three post-administration collection days (3, 10, 17)): 100% | efficacy in preventing emergence of adult house flies ([2]; second study, all three spinosad groups (0.4, 0.5, 0.6 mg/kg), all three fecal sample collection dates): 100% | adverse effects ([3]; first study, horses, 0.6-1.2 mg spinosad/kg body weight/day, daily for the study): no observed adverse effects | adverse effects ([3]; second study, horses, 0.4, 0.5, 0.6 mg spinosad/kg): no observed adverse effects | reduction in stable fly emergence ([1]; first study, 0.6 mg spinosad/kg of body weight group, study day 17 fecal sample collection): 97.25% | Reduction in emergence of stable fly adults ([1]; first study, horses, all 4 spinosad treatments (0.6-1.2 mg/kg/day) at all three post-administration collections, with one exception): 100% | reduction in stable fly emergence ([1]; second study, 0.4 mg spinosad/kg of body weight group, study day 10 fecal sample collection): 99.3% | Reduction of the emergence of stable flies ([1]; second study, horses, all three spinosad groups (0.4, 0.5, 0.6 mg/kg), with one exception): 100% | mean spinosyn A concentration in fecal samples ([4]; first study, 0.6 mg spinosad/kg of body weight group, all three animals): 3.4 ppm | mean spinosyn A concentration in fecal samples ([4]; first study, 0.8 mg spinosad/kg of body weight group, all three animals): 2.9 ppm | mean spinosyn A concentration in fecal samples ([4]; first study, 1.2 mg spinosad/kg of body weight group): 5.5 ppm | concentration of spinosyn A in fecal samples (lowest single sample) ([4]; first study, one horse, 0.6 mg spinosad/kg group, study day 3): 0.9 ppm | concentration of spinosyn A in fecal samples (highest single sample) ([4]; first study, one horse, 1.2 mg spinosad/kg group, study day 10): 8.6 ppm | mean spinosyn A concentration in fecal samples ([4]; second study, 0.4 mg spinosad/kg group, all three animals, all three post-administration dates): 2.2 ppm | mean spinosyn A concentration in fecal samples ([4]; second study, 0.5 mg spinosad/kg group, all three animals, all three post-administration dates): 3.2 ppm | mean spinosyn A concentration in fecal samples ([4]; second study, 0.6 mg spinosad/kg group, all three animals, all three post-administration dates): 3.7 ppm | percent reduction in horn flies vs control group ([5]; oral 0.30 mg/kg in feed, from day 9 and on): at least 63.3% | percent reduction in horn flies vs control group ([5]; oral 3.0 mg/kg in feed, all time points (days 2-25)): at least 89.2%
